Results as given in patent publication US20260262652A1, “INSECT DAMAGE INHIBITOR, METHOD FOR USING RESIN COMPOSITION, CULTIVATION METHOD, POTTING SOIL, AND METHOD FOR IMPROVING SOIL” (ARAKAWA CHEMICAL INDUSTRIES, LTD., priority 2023, published 2026).

System: two-spotted spider mites
Test: Test 2: spraying onto two-spotted spider mites on kidney bean seedlings, count of mites (pest reproduction inhibition effect)
Format: in vivo, Tetranychus urticae
Details: ten female adults inoculated on kidney bean seedlings, (A1) as 1% solution, average of pots
Protocol: Ten female adult two-spotted spider mites were inoculated onto ‘Naga-uzura’ kidney bean seedlings (14 days after germination) grown in plastic pots, and an ethanol solution of the component (A1) was further diluted 10-fold with deionized water, and the resulting 1% solution was sprayed onto the spider mites. Two additional pots with similarly grown kidney bean seedlings were prepared. On the 2nd, 4th, 9th, 13th, and 17th days after spraying, the total number of two-spotted spider mites on the adaxial surface, abaxial surface, and true leaves of the kidney beans in each pot was counted, and the average value was calculated. The test was conducted in the same manner for the component (A3)′.

`CCO` [(A3)′, ethanol] was tested, and the “Number of two-spotted spider mites (Average) Day 2” value (Day 2 after spraying) was 9, the “Number of two-spotted spider mites (Average) Day 4” value (Day 4 after spraying) was 8 and the “Number of two-spotted spider mites (Average) Day 9” value (Day 9 after spraying) was 287. For the same compound, the “Number of two-spotted spider mites (Average) Day 13” value (Day 13 after spraying) was 564 and the “Number of two-spotted spider mites (Average) Day 17” value (Day 17 after spraying) was 924.
